Data set [1] has as its system P-gp (human MDR1). Put plainly: in vitro. In kind it is in vitro ADME, canine. The conditions noted are these: dog, MDCK-MDR1; 3 μM test compound; without GF120918; read-out: MDCK-MCR1 Papp. On the procedure:
(§1) MDCK-MDR1 cells (Madin-Darby canine kidney cells transfected with the human MDR1 gene) (Dr. Piet Borst, NKI-AVL, Amsterdam, The Netherlands) were seeded at 300,000 cells per well onto microporous, polycarbonate membranes in 12 well Costar Transwell® plates (Corning, Corning, N.Y.). The medium was removed and replaced with fresh cell culture medium approximately 24 hours after plating. Cells attained confluency and were ready for use in the transport assay after 72 hours of incubation.
(§2) A stock solution of each compound was prepared in DMSO at a concentration of 10 mg/mL. Stock solutions were further diluted in DMSO to a concentration of 1 mM for use in the assay. The final assay concentration of test compound in each incubation mixture was 3 μM and the final concentration of DMSO was 0.3%.
(§3) Cell cultures were pre-incubated with Transport Medium (TM), consisting of Hanks Balanced Salt Solution (HBSS), 25 mM glucose, and 25 mM HEPES, with and without the known P-gp inhibitor GF120918 (2 μM final assay concentration), for 30-60 minutes prior to the addition of test and control compounds. Following the pre-incubation period, transepithelial electrical resistance (TEER) measurements were taken on each insert to insure the integrity of the monolayer. The range for TEER values was 45-85Ω·cm^2. Transport medium was removed. Fresh transport media (1.5 mL) with or without GF120918 was added to the basolateral chambers. Solutions of the test compound were diluted into TM and added to the appropriate wells in triplicate (400 μL/well) at a final concentration of 3 μM with and without GF120918. The final concentration of DMSO was 0.3%. Control compounds were tested in triplicate at a final concentration of 3 μM. Cell monolayers were incubated with shaking (160 rpm) at 37° C. with 5% CO2 in a humidified incubator for one hour. Following the incubation, all plates were removed from the incubator. Inserts were removed from the plates and TEER measurements were again taken on each insert prior to removing samples for analysis to ensure no degradation of the tight junctions during the assay. An aliquot was taken from each receiver and diluted 1:3 with organic solvent (methanol) to assess transport of each compound across the monolayer. An aliquot was taken from each donor and diluted 1:2 with organic solvent (methanol) and then again 1:50 with matrix (50% methanol/50% TM) to assess mass balance within the study. All samples were assayed for test compound concentrations by LC-MS/MS using electrospray ionization.

Data set [2] deals with MDCK-MDR1 cells. Put plainly: in vitro. As to conditions: 3 μM test compound. Format: in vitro ADME, canine. As to the method: as §1, §2, §3
Data set [3] relates to LAB 110 Eatro strain of T. b. brucei. Put plainly: Acute Murine Model A [Murine Stage 1 HAT]. In kind it is in vivo. As to conditions: for Mean Survival Days: mice infected with T. b. brucei, 10 mg/kg, BID, orally, 4 days. As to the method:
Female Swiss Webster mice were inoculated with 250,000 parasites of the LAB 110 Eatro strain of T. b. brucei. 24 hrs post-infection, treatment was initiated by administration of a compound of the invention BID for 4 days with 20 mg/kg/dose (40 mg/kg/day) intraperitoneally (IP) or orally (PO), 5 mg/kg BID or 10 mg/kg BID orally (PO). 3 mice per group were treated with a particular compound of the invention. Mice were checked for parasitemia weekly by microscopic examination of smears prepared from tail vein blood. Animals remaining parasite free for more than 30 days beyond the end of the treatment period were considered cured. Control untreated animals typically succumbed to the infection within 4-5 days following i.p. inoculation with parasites. Mice were monitored for 30 days for survival. Pentamidine at 2 mg/kg IP was used as the positive control. After 10 days, 0% of the untreated mice were parasite free. After 10 days, 67% of mice treated PO with 10 mg/kg BID of N-(1-Hydroxy-3,4-dihydro-1H-benzo[c][1,2]oxaborinin-7-yl)-4-methoxy-benzamide (M19) were parasite free. After 30 days, 100% of mice treated PO with 10 mg/kg BID of 4-fluoro-N-(1-hydroxy-3,4-dihydro-1H-benzo[c][1,2]oxaborinin-7-yl)-2-trifluoromethyl-benzamide (M1) were parasite free.

Data set [4] relates to TREU 667 strain of T. b. brucei. Put plainly: Chronic CNS Model [Murine Stage 2 HAT]. In kind it is in vivo. As to conditions: treated on Day 21 (10 mg/kg), negative control. As to the method:
Mice were infected with 10,000 parasites of the TREU 667 strain of T. b. brucei. Twenty one days post-infection mice were treated with a dose of between 6 and 100 mg/kg of a compound of the invention, either BID or QD for 7 days intraperitoneally (IP) or orally (PO). Positive control mice were treated with Diminazene (10 mg/kg, IP) on Day 4 post-infection. Negative control mice were treated with Diminazene (10 mg/kg, PO) on Day 21. Since Diminazene is not able to penetrate the CNS, mice treated at Day 21 are not able to cure the infection. Starting 1 week after treatment, mice were checked for parasitemia by microscopic examination of smears prepared from tail vein blood. Parasite positive animals were immediately removed from the cages and euthanized. Animals were considered to be cured of a CNS infection if they were aparasitemic for at least 180 days after the end of the treatment period.

As to `CC(C)c1ccc(S(=O)(=O)Nc2ccc3c(c2)B(O)OCC3)cc1` [M47, N-(1-Hydroxy-3,4-dihydro-1H-benzo[c][1,2]oxaborinin-7-yl)-4-isopropyl-benzenesulfonamide], the Papp at 1 h, 3 µM in data set [1] was found to be 64.8 ×10⁻⁶ cm/s. Also, the “MDCK-MCR1 AQ” value in data set [2] was determined as 0.04. The “Mean Survival Days” value in data set [3] turned out to be 9 days.

`CCc1ccc(C(=O)Nc2ccc3c(c2)B(O)OCC3)cc1` [M12, 4-Ethyl-N-(1-hydroxy-3,4-dihydro-1H-benzo[c][1,2]oxaborinin-7-yl)-benzamide]: the Papp at 1 h, 3 µM in data set [1] is 80.3 ×10⁻⁶ cm/s. In addition, the “MDCK-MCR1 AQ” value in data set [2] was −0.04. Besides, the “Mean Survival Days” value in data set [3] came to 8 days.

In the case of `O=C(Nc1ccc2c(c1)B(O)OCC2)c1ccc(Cl)cc1Cl` [M27, 2,4-Dichloro-N-(1-hydroxy-3,4-dihydro-1H-benzo[c][1,2]oxaborinin-7-yl)-benzamide], the Papp at 1 h, 3 µM in data set [1] amounted to 85.1 ×10⁻⁶ cm/s. In addition, the “MDCK-MCR1 AQ” value in data set [2] was −0.03. Further, the “Mean Survival Days” value in data set [3] is over 30 days.

For `COC(=O)c1ccc(C(=O)Nc2ccc3c(c2)B(O)OCC3)cc1` [M40, N-(1-Hydroxy-3,4-dihydro-1H-benzo[c][1,2]oxaborinin-7-yl)-terephthalamic acid methyl ester], the “Mean Survival Days” value in data set [3] was 4 days.

Regarding `COc1ccc(C(=O)Nc2ccc3c(c2)B(O)OCC3)cc1` [M19, N-(1-Hydroxy-3,4-dihydro-1H-benzo[c][1,2]oxaborinin-7-yl)-4-methoxybenzamide], in data set [3] (female Swiss Webster mice, PO 10 mg/kg BID for 4 days, after 10 days), the “mice parasite free after 10 days” value was 67%. For the same compound, the “Mean Survival Days” value in data set [3] was determined as 9 days.

Regarding `CC1(C)COB(O)c2cc(NC(=O)c3ccc(F)cc3C(F)(F)F)ccc21` [M51], in data set [3], the “Mean Survival Days” value is 3.6 days.

For the compound `O=S(=O)(Nc1ccc2c(c1)B(O)OCC2)c1ccc(Cl)cc1` [M43, 4-Chloro-N-(1-hydroxy-3,4-dihydro-1H-benzo[c][1,2]oxaborinin-7-yl)-benzenesulfonamide], the Papp at 1 h, 3 µM in data set [1] was 64.9 ×10⁻⁶ cm/s. Also, in data set [2], the “MDCK-MCR1 AQ” value is recorded as 0.05.

Turning to `Cc1ccc(S(=O)(=O)Nc2ccc3c(c2)B(O)OCC3)cc1` [M46, N-(1-Hydroxy-3,4-dihydro-1H-benzo[c][1,2]oxaborinin-7-yl)-4-methylbenzenesulfonamide], the Papp at 1 h, 3 µM in data set [1] worked out at 77.1 ×10⁻⁶ cm/s. Further, the “MDCK-MCR1 AQ” value in data set [2] stood at 0.05. Moreover, the “Mean Survival Days” value in data set [3] turned out to be 5 days.

Consider `O=C(Nc1ccc2c(c1)B(O)OCC2)c1ccccc1C(F)(F)F` [M15, N-(1-Hydroxy-3,4-dihydro-1H-benzo[c][1,2]oxaborinin-7-yl)-2-trifluoromethyl-benzamide], for which the “Mean Survival Days” value in data set [3] is over 30 days.

For the compound `CC(C)(C)c1ccc(C(=O)Nc2ccc3c(c2)B(O)OCC3)cc1` [M14, 4-tert-Butyl-N-(1-hydroxy-3,4-dihydro-1H-benzo[c][1,2]oxaborinin-7-yl)-benzamide], the “Mean Survival Days” value in data set [3] worked out at 3.6 days.

In the case of `O=C(Nc1ccc2c(c1)B(O)OCC2)c1ccccc1Cl` [M5, 2-Chloro-N-(1-hydroxy-3,4-dihydro-1H-benzo[c][1,2]oxaborinin-7-yl)-benzamide], in data set [1], the Papp at 1 h, 3 µM was 70.7 ×10⁻⁶ cm/s. Moreover, the “MDCK-MCR1 AQ” value in data set [2] was 0.1. For the same compound, the “Mean Survival Days” value in data set [3] turned out to be 7 days.

For the compound `O=C(Nc1ccc2c(c1)B(O)OCC2)c1ccccc1Br` [M8, 2-Bromo-N-(1-hydroxy-3,4-dihydro-1H-benzo[c][1,2]oxaborinin-7-yl)-benzamide], the “Mean Survival Days” value in data set [3] was determined as 5.6 days.

Take `O=C(Nc1ccc2c(c1)B(O)OCC2)c1ccc(Cl)cc1F` [M29, 4-Chloro-2-fluoro-N-(1-hydroxy-3,4-dihydro-1H-benzo[c][1,2]oxaborinin-7-yl)-benzamide]: the Papp at 1 h, 3 µM in data set [1] was determined as 80.4 ×10⁻⁶ cm/s. In addition, the “MDCK-MCR1 AQ” value in data set [2] is −0.04. Also, in data set [3], the “Mean Survival Days” value is over 30 days.

Take `N=C(N)c1ccc(/N=N/Nc2ccc(C(=N)N)cc2)cc1` [Diminazene, reference compound]: the “day by which all animals relapsed to exhibit blood parasitemia” value in data set [4] is at most 56 days.

Usually Papp stands for the rate of passage across a membrane or cell layer, normalised by area and donor concentration.

Values taken from patent US8623911B2, “Boron-containing small molecules as anti-protozoal agent” (Anacor Pharmaceuticals, Inc., priority 2010, dated 2014).
